Key:
[1] = tested on: DH5alpha E. coli; assay: FcMBL bead captured bacteria cultured 2 hours in LB with or without antibiotic, quantified on LB Agar plates; type: cell-based; details: 2 hours at 37° C. in LB; Carbenicillin 100 μg/ml (FIG. 3 legend); range of titers down to 300 colonies
Experimental: In preliminary studies, the inventors tested the discrimination of the antibiotic susceptibility assay described herein with a range of titers of DH5alpha E. coli (corresponding to blood titers from a range of sepsis patients from septic shock to SIRS) FcMBL bead captured bacteria were cultured for 2 hours at 37° C. with vigorous agitation/aeration in Luria Broth (LB) or in LB supplemented with the bacteriocidal antibiotic Carbenicillin or the bacteriostatic antibiotic Spectomycin. The bacteria were quantified on LB Agar plates. In all cases, the inventors were able to discriminate between the growth in LB compared with growth in LB with bacteriocidal or bacteriostatic antibiotic (see FIG. 3).

[2] = tested on: E. coli; assay: Antibiotic susceptibility from single bacterium: FcMBL bead capture, gel matrix, resazurin/Sytox Green 11 live-dead imaging; type: cell-based; details: kanamycin at 50 μg/ml in BHI; captured E. coli grown in gel matrix; time after antibiotic addition
Experimental: Bacteria in a biological sample were captured by FcMBL coated magnetic beads. The bead/bacteria were washed and added to a microscope compatible surface (for example, plasma treated coverslip or glass bottom microplates) and immobilized by an underlying magnet. A low melt agarose gel 37° C. containing growth media (BHI), resazurin (a stain for labeling live cells), and Sytox Green 11 (a stain for labeling dead cells) was overlaid on the bacteria-bound FcMBL magnetic beads to immobilize and/or secure the bacteria in place. In some embodiments where the bead/bacteria were spotted on glass bottom microplates, the wells were filled with growth medium containing fluorescent stains for live and/or dead cells. The captured bacteria were incubated on the slide or in the wells for about 1-2 hours at about 36-37° C. and imaged by microscopy, e.g., fluorescent microscopy. Live cells could be identified by resorufin (metabolized resazurin) stain and coordinates of the live cells could be determined and stored for iterative imaging. […] Bacteria can be observed for, for example, growth in the presence of the antibiotics (to determine the resistance of the bacteria to the particular antibiotics), cell death determined by fluorescent stain for dead cells (to determine bactericidal activity), and/or inhibition of growth (to determine bacteriostatic activity). […]

## CC1(C)S[C@@H]2[C@H](NC(=O)C(C(=O)O)c3ccccc3)C(=O)N2[C@H]1C(=O)O (stereo partly drawn) [Carbenicillin]
[1]
  bacterial counts compared with LB and LB with bacteriostatic antibiotic: lowest of the three conditions tested

## NC[C@H]1O[C@H](O[C@H]2[C@H](O)[C@@H](O[C@H]3O[C@H](CO)[C@@H](O)[C@H](N)[C@H]3O)[C@H](N)C[C@@H]2N)[C@H](O)[C@@H](O)[C@@H]1O [Kanamycin]
[2]
  color change from red-resorufin to green Sytox green 11 (cell death) observed for some of the bacteria: ≤ 5 min
  complete effect for all cells in the tracked fields of vision: 30 to 40 min

Source: patent publication US9632085B2, “Rapid antibiotic susceptibility testing” (PRESIDENT AND FELLOWS OF HARVARD COLLEGE, priority 2012, dated 2017)
